Test [1] concerns voltage-gated Ca^2+ channels (VGCC). The test is described as follows: Calcium channel antagonist assay (cytosolic Ca2+, Fluo-4). The format is cell-based. Particulars: SH-SY5Y cells, K+ 70 mM. On the procedure:
The cytosolic Ca2+ has been measured in SH-SY5Y cells. SH-SY5Y cells were maintained similarly to what was previously described56. Free cytosolic Ca2+ was measured using the fluorescent Ca2+ indicator Fluo-4/AM (Fluo-4 acetomethoxyester). SH-SY5Y cells were seeded onto 96-well black plates at a density of 10^5 cells per well, achieving confluence after 48 h. Cells were washed with Krebs-Hepes solution (KH, in mM: 144 NaCl, 5.9 KCl, 1.2 MgCl2, 2 CaCl2, 11 D-glucose, 10 HEPES, pH 7.4). Cells were loaded with 10 µM Fluo-4/AM and 0.2% pluronic acid in KH and incubated for 45 min at 37 °C in the dark. Then, cells were washed twice with KH to remove the excess of probe. Tested compounds were incubated 10 min before K+ 70 mM was applied to evoke the increment of cytosolic Ca2+. To normalize Fluo-4 signals, Triton X-100 (5%) and 1 M MnCl2 were applied to register both maximal and minimal fluorescence, respectively. The experiments were analyzed at excitation and emission wavelengths of 485 and 520 nm, respectively, and fluorescence was measured in a fluorescence microplate reader (FLUOstar Optima, BMG, Germany). Data were calculated as a percentage of Fmax - Fmin.
The blocking effect of the depolarization-induced Ca^2+ uptake was investigated in SH-SY5Y neuroblastoma cells stimulated with an extracellular concentration of K^+ 70 mM, which induces the cell Ca^2+ levels elevation by opening voltage-gated Ca^2+ channels (VGCC), monitored with the Ca^2+-sensitive fluorescent dye Fluo-4. Nimodipine was used as positive standard.

In the next test the target is T1, Human recombinant GSK-3β (Homo sapiens, UniProt P49841).
T1 construct: purchased Millipore (Millipore Iberica S.A.U.)
T1 sequence (P49841 whole entry): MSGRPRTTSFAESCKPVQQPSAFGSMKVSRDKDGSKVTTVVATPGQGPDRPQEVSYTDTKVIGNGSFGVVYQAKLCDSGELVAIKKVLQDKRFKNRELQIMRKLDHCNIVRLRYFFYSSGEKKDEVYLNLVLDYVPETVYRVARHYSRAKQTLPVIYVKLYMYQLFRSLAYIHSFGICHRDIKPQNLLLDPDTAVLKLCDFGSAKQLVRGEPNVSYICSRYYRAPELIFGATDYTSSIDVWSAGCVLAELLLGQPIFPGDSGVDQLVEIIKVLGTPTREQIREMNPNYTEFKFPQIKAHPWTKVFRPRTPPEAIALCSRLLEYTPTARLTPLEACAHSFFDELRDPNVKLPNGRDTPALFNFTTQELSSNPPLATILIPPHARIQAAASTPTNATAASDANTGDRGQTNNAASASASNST
Nature of the test: GSK-3β inhibition in vitro assay (Kinase-Glo luminescence). The class given is biochemical. As for the experimental part: Human recombinant GSK-3β, prephosphorylated polypeptide substrate and white 96-well plates were purchased from Millipore (Millipore Iberica S.A.U.). Kinase-Glo Luminescent Kinase Assay was obtained from Promega (Promega Biotech Iberica, SL). Adenosinetriphosphate (ATP) and all other reagents were from Sigma-Aldrich. Assay buffer contained 50 mM 4-(2-hydroxyethyl)-1- piperazineethanesulfonic acid (HEPES) (pH 7.5), 1 mM ethylenediaminetetraacetic acid (EDTA), 1 mM ethylene glycol tetraacetic acid (EGTA), and 15 mM magnesium acetate. The in solution experiments for GSK-3β inhibition analysis were performed by following the method developed by Baki et al.^18. In a typical assay, 10 µL of test compound (dissolved in DMSO at 1 mM concentration and diluted in advance in assay buffer to the desired concentration) and 10 µL (20 ng) of enzyme were added to each well in presence of 20 µL of assay buffer containing GSM substrate and ATP in order to reach a 25 µM and 1 µM final concentration respectively. […] After a 30 min incubation time at 30 °C, the enzymatic reaction was stopped by adding 40 µL of Kinase-Glo reagent. Glow-type luminescence was recorded after 10 min using a VictorX 3 PerkinElmer plate reader. […]. The linear regression parameters were determined and the IC50 extrapolated (GraphPad Prism 4.0, GraphPad Software Inc.).
For orientation: In Kinase-Glo more light means more ATP remaining.

Test [2] deals with T2, Human butyrylcholinesterase (hBuChE) (Homo sapiens, UniProt P06276).
T2 construct: Human butyrylcholinesterase (hBuChE) isolated from human plasma was from Vivonics; purchased Vivonics (Bedford, MA, USA); host or cells: human plasma
T2 sequence (P06276 29-602): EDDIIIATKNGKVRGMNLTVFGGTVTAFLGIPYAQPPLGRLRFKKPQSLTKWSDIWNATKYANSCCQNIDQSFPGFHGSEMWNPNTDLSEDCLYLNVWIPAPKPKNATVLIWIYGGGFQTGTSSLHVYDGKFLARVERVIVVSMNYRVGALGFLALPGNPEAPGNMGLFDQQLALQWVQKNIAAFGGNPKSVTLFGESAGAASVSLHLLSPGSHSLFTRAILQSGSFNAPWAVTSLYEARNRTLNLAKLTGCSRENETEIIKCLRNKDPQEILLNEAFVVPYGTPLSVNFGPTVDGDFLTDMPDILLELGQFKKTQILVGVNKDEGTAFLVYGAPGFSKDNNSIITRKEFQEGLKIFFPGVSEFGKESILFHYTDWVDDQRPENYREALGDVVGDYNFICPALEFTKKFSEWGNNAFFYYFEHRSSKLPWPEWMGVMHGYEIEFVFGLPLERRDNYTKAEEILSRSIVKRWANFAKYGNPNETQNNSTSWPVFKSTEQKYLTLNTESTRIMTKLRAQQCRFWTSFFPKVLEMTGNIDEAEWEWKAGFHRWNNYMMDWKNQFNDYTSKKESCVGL
The test is described as follows: Cholinesterase inhibition assay (Ellman), hBuChE. The class given is biochemical. As for the experimental part:
Inhibitory activities of the test compounds against the human cholinesterases were measured using the spectrophotometric method described by Ellman et al.^4, as modified for 96-well microplates. 5,5'-Dithiobis-(2-nitrobenzoic acid) (DTNB), acetylthiocholine iodide (ATC), butyrylthiocholine iodide (BTC), and human recombinant acetylcholinesterase (hAChE) were purchased from Sigma-Aldrich. Human butyrylcholinesterase (hBuChE) isolated from human plasma was from Vivonics (Bedford, MA, USA). […] The stock solutions of the test compounds were prepared by dissolving in DMSO to obtain a concentration of 0.0034M. They were further diluted in water to give appropriate concentration in a well. In the first step of Ellman's method 25 µL of the test compound (or mixture DMSO/water in appropriate ratio; i.e. blank samples) was incubated in 0.1 M phosphate buffer (200 µL, pH= 8.0) with DTNB (20 µL; 0.0025M) and the enzyme (20 µL; hAChE or hBuChE) in temperature 36 °C. […] All compounds were tested at screening concentration of 10 µM. Percent of inhibition was calculated from 100-(S/B)×100, where S and B were the respective enzyme activities with and without the test sample, respectively. […] All reactions were performed in triplicate. The IC50 values were calculated using nonlinear regression (GraphPad Prism 5 [GraphPad Software, San Diego California USA 5.00]) by plotting the residual enzyme activities against the applied inhibitor concentration. Tacrine was used as a reference compound.
(In general: DTNB colorimetry detects thiols as they appear.)

A further test has as its target T3, human H3 receptor (Homo sapiens, UniProt Q9Y5N1).
T3 construct: expressed in transfected cells; host or cells: CHO-K1
The test is described as follows: H3 Receptor Binding Assay (radioligand binding). Particulars: membranes from CHO-K1 cells, [3H]-N-α-methylhistamine 1.0 nM; read-out: H3R Ki [nM] ± SEM. As for the experimental part: 10 mM stock solutions of compounds to be tested were prepared in DMSO.
Radioligand binding was performed using membranes from CHO-K1 cells stably transfected with the human H3 receptor. All assays were carried out in duplicates. 50 µl working solution of the tested compounds, 50 µl [3H]-N-α-methylhistamine (spec. act. 82.9 Ci/mmol, final concentration 1.0 nM) and 150 µl diluted membranes (15 µg protein per well) prepared in assay buffer (50 mM Tris, pH 7.4, 5 mM MgCl2) were transferred to polypropylene 96-well microplate using 96-wells pipetting station Rainin Liquidator (MettlerToledo). […] Microplate was covered with a sealing tape, mixed and incubated for 60 minutes at 27°C. The reaction was terminated by rapid filtration through GF/B filter mate presoaked with 0.5% polyethyleneimine for 30 minutes. Five rapid washes with 300 µl 50 mM Tris buffer (4°C, pH 7.4) were performed using 96-well FilterMate harvester (PerkinElmer, USA). The filter mates were dried at 37°C in forced air fan incubator and then solid scintillator MeltiLex was melted on filter mates at 90°C for 4 minutes. Radioactivity was counted in MicroBeta2 scintillation counter (PerkinElmer). Data were fitted to a one-site curve-fitting equation with Prism 5 (GraphPad Software) and Ki values were estimated from the Cheng-Prusoff equation.

Test [3] deals with T4, human recombinant acetylcholinesterase (hAChE) (Homo sapiens, UniProt P22303).
T4 construct: purchased Sigma-Aldrich
T4 sequence (P22303 32-614): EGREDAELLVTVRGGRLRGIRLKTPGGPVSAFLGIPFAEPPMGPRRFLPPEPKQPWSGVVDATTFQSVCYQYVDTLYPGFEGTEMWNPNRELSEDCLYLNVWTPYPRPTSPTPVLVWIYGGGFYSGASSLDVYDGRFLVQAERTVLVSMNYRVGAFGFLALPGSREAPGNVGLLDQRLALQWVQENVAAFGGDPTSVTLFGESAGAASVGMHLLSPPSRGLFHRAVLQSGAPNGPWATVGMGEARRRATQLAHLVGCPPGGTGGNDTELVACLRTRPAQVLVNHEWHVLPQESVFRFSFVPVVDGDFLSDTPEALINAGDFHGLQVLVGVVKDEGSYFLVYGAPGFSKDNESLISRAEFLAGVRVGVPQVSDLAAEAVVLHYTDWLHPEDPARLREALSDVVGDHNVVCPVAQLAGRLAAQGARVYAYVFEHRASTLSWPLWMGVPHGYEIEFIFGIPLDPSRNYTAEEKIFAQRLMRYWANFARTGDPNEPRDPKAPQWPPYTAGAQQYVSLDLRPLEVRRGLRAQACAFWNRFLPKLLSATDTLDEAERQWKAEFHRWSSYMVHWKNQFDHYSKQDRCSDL
The test is described as follows: Cholinesterase inhibition assay (Ellman), hAChE. The class given is biochemical. On the procedure: Inhibitory activities of the test compounds against the human cholinesterases were measured using the spectrophotometric method described by Ellman et al.^4, as modified for 96-well microplates. 5,5'-Dithiobis-(2-nitrobenzoic acid) (DTNB), acetylthiocholine iodide (ATC), butyrylthiocholine iodide (BTC), and human recombinant acetylcholinesterase (hAChE) were purchased from Sigma-Aldrich. Human butyrylcholinesterase (hBuChE) isolated from human plasma was from Vivonics (Bedford, MA, USA). […] In the first step of Ellman's method 25 µL of the test compound (or mixture DMSO/water in appropriate ratio; i.e. blank samples) was incubated in 0.1 M phosphate buffer (200 µL, pH= 8.0) with DTNB (20 µL; 0.0025M) and the enzyme (20 µL; hAChE or hBuChE) in temperature 36 °C. […] All compounds were tested at screening concentration of 10 µM. Percent of inhibition was calculated from 100-(S/B)×100, where S and B were the respective enzyme activities with and without the test sample, respectively. […] All reactions were performed in triplicate. The IC50 values were calculated using nonlinear regression (GraphPad Prism 5 [GraphPad Software, San Diego California USA 5.00]) by plotting the residual enzyme activities against the applied inhibitor concentration. Tacrine was used as a reference compound.

[4] abbreviates: read-out: cholinesterases inhibition.

Where two headings read alike, the source gives them in different places.

T3 sequence (Q9Y5N1 whole entry): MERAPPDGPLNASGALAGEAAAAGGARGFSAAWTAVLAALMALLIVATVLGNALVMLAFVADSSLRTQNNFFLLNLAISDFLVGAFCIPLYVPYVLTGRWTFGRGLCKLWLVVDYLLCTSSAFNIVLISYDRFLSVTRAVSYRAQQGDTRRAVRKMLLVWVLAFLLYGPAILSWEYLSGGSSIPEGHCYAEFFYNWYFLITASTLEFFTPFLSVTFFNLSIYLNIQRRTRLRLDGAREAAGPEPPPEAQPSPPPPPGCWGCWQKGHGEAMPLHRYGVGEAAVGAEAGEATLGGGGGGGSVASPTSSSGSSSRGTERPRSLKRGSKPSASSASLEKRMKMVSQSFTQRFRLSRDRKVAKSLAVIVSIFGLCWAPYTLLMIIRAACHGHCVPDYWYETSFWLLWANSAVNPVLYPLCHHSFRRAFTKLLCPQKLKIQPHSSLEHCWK

Consider `CCOC(=O)C1=C(C)N(CCC2CCN(Cc3ccccc3)CC2)C(=O)NC1c1ccc(OCCCCN2CCCC2)cc1` (stereo not shown) [BIGI-BIH-D1, Ethyl 1-(2-(1-benzylpiperidin-4-yl)ethyl)-6-methyl-2-oxo-4-(4-(4-(pyrrolidin-1-yl)butoxy)phenyl)-1,2,3,4-tetrahydropyrimidine-5-carboxylate], for which, in test [1], the “Calcium Channel % inhibition at 10µM” value amounted to 5%. The IC50 at Human recombinant GSK-3β (read-out: Gsk3β IC50) is 59800 nM; in test [2], 1720 ± 119 nM; in test [3] (setting [4]), 63 nM; in test [3] (read-out: hAChE IC50), 63 ± 1 nM. Also, on human H3 receptor, the Ki (as a rule, the equilibrium dissociation constant of an inhibitor or competing ligand from its target) amounted to 2.8 ± 0.2 nM.

For `CCOC(=O)C1=C(C)N(CCC2CCN(Cc3ccccc3)CC2)C(=O)NC1c1ccc(OCCCCN2CCCCC2)cc1` (stereo not shown) [BIGI-BIH-D2, Ethyl 1-(2-(1-benzylpiperidin-4-yl)ethyl)-6-methyl-2-oxo-4-(4-(4-(piperidin-1-yl)butoxy)phenyl)-1,2,3,4-tetrahydropyrimidine-5-carboxylate], in test [1], the “Calcium Channel % inhibition at 10µM” value is reported as 13%. In addition, the IC50 at Human recombinant GSK-3β (read-out: Gsk3β IC50) amounted to 106000 nM; in test [2] it was 928 ± 32 nM; in test [3] (setting [4]) it was 123 nM; in test [3] (read-out: hAChE IC50), 67 ± 1 nM. The Ki at human H3 receptor was determined as 0.6 ± 0.08 nM.

Take `CCOC(=O)C1=C(C)N(CCC2CCN(Cc3ccccc3)CC2)C(=O)NC1c1ccc(OCCCCN2CCOCC2)cc1` (stereo not shown) [BIGI-BIH-D3, Ethyl 1-(2-(1-benzylpiperidin-4-yl)ethyl)-6-methyl-4-(4-(4-morpholinobutoxy)phenyl)-2-oxo-1,2,3,4-tetrahydropyrimidine-5-carboxylate]: in test [1], the “Calcium Channel % inhibition at 10µM” value was 23%. For the same molecule, the figures for the IC50 (at Human recombinant GSK-3β (read-out: Gsk3β IC50); in test [3] (read-out: hAChE IC50)) were 126000 nM and 123 ± 2 nM, respectively. Also, at human H3 receptor, the Ki worked out at 12 ± 0.5 nM.

For the molecule `CCOC(=O)C1=C(C)N(CCC2CCN(Cc3ccccc3)CC2)C(=O)NC1c1ccc(OCCCCCN2CCCC2)cc1` (stereo not shown) [BIGI-BIH-D4, Ethyl 1-(2-(1-benzylpiperidin-4-yl)ethyl)-6-methyl-2-oxo-4-(4-((5-(pyrrolidin-1-yl)pentyl)oxy)phenyl)-1,2,3,4-tetrahydropyrimidine-5-carboxylate], the “Calcium Channel % inhibition at 10µM” value in test [1] is 22%. The IC50 on Human recombinant GSK-3β turned out to be 60500 nM; in test [2] it was 1390 ± 66 nM; in test [3] (read-out: hAChE IC50) it was 88 ± 2 nM. Also, at human H3 receptor, the Ki amounted to 0.5 ± 0.05 nM.

With `CCOC(=O)C1=C(C)N(CCC2CCN(Cc3ccccc3)CC2)C(=O)NC1c1ccc(OCCCCCN2CCCCC2)cc1` (stereo not shown) [BIGI-BIH-D5, Ethyl 1-(2-(1-benzylpiperidin-4-yl)ethyl)-6-methyl-2-oxo-4-(4-((5-(piperidin-1-yl)pentyl)oxy)phenyl)-1,2,3,4-tetrahydropyrimidine-5-carboxylate], the “Calcium Channel % inhibition at 10µM” value in test [1] is 34%. Also, the IC50 was found to be 26300 nM at Human recombinant GSK-3β (read-out: Gsk3β IC50), 1280 ± 72 nM in test [2] and 67 ± 1 nM in test [3] (read-out: hAChE IC50). Moreover, the Ki on human H3 receptor was determined as 0.3 ± 0.07 nM.

`CCOC(=O)C1=C(C)N(CCC2CCN(Cc3ccccc3)CC2)C(=O)NC1c1ccc(OCCCCCN2CCOCC2)cc1` (stereo not shown) [BIGI-BIH-D6, Ethyl 1-(2-(1-benzylpiperidin-4-yl)ethyl)-6-methyl-4-(4-((5-morpholinopentyl)oxy)phenyl)-2-oxo-1,2,3,4-tetrahydropyrimidine-5-carboxylate]: the “Calcium Channel % inhibition at 10µM” value in test [1] is recorded as 39%. Moreover, the IC50 at Human recombinant GSK-3β (read-out: Gsk3β IC50) stood at 56600 nM; in test [3] (read-out: hAChE IC50) it was 115 ± 2 nM. Besides, on human H3 receptor, the Ki worked out at 0.6 ± 0.05 nM.

With `CCOC(=O)C1=C(C)N(CCC2CCN(Cc3ccccc3)CC2)C(=O)NC1c1ccc(OCCCCCCN2CCCC2)cc1` (stereo not shown) [BIGI-BIH-D7, Ethyl 1-(2-(1-benzylpiperidin-4-yl)ethyl)-6-methyl-2-oxo-4-(4-((6-(pyrrolidin-1-yl)hexyl)oxy)phenyl)-1,2,3,4-tetrahydropyrimidine-5-carboxylate], the “Calcium Channel % inhibition at 10µM” value in test [1] came to 47%. For the same molecule, the values for the IC50 (at Human recombinant GSK-3β (read-out: Gsk3β IC50); in test [2]; in test [3] (read-out: hAChE IC50)) were 30600 nM, 768 ± 13 nM and 89 ± 2 nM, respectively. In addition, on human H3 receptor, the Ki stood at 0.2 ± 0.04 nM.

On to `CCOC(=O)C1=C(C)N(CCC2CCN(Cc3ccccc3)CC2)C(=O)NC1c1ccc(OCCCCCCN2CCOCC2)cc1` (stereo not shown) [BIGI-BIH-D9, Ethyl 1-(2-(1-benzylpiperidin-4-yl)ethyl)-6-methyl-4-(4-((6-morpholinohexyl)oxy)phenyl)-2-oxo-1,2,3,4-tetrahydropyrimidine-5-carboxylate], for which the “Calcium Channel % inhibition at 10µM” value in test [1] is recorded as 61%. In addition, the results for the IC50 (at Human recombinant GSK-3β; in test [3] (read-out: hAChE IC50)) were 38600 nM and 115 ± 2 nM, respectively. Also, on human H3 receptor, the Ki is 3 ± 0.4 nM.

Regarding `COCCOC(=O)C1=C(C)NC(C)=C(C(=O)OC(C)C)C1c1cccc([N+](=O)[O-])c1` (stereo not shown) [Nimodipine, reference compound], in test [1], the “Calcium Channel % inhibition at 10µM” value is 38%.
